# Measured values as given in article PMC9103596, “The inhibitory effect of boric acid on hypoxia-regulated tumour-associated carbonic anhydrase IX” (Journal of Enzyme Inhibition and Medicinal Chemistry, 2022).
# pIC50, pKi: −log10 of the molar value. Where two headings read alike, the source gives them in different places.
# Assays:
# [1] = system: androgen-sensitive LNCaP prostate cancer cells; conditions: nude mice injected with LNCaP cells, treated with BA; cited from earlier work
# [2] = system: CA IX levels in HT29 cells; conditions: treated at IC50 concentration for 24 h, ELISA
# Procedure: Cells were incubated at 37 °C and 5% CO2 in 25cm[3] flasks. On reaching 80–90% confluence, cell harvesting was performed by washing cells in phosphate-buffered saline (PBS) and then detached from the flask surface using trypsin-EDTA. Cell count was determined using a hematocytometer. Two separate cultures each for both HT29 and A375 were grown, one under normoxic conditions and the second one under hypoxic conditions. The normoxic cultures for HT29 and A375 were grown and incubated at normoxic conditions (37 °C and 5% CO2). […] The hypoxic chamber was placed in a 37 °C incubator for 4 h. Hypoxia conditions were confirmed by detecting HIF-1α protein level by using an ELISA kit (Shangai Koon, Shanghai, China).
# HT29 and A375 cells were seeded 0.3 × 10^6 cells/well into two separate six-well plates. On each well-plate, one column was treated with BA, the second was treated with AZA, and the third column was left untreated, serving as a control. […] The plates were then set aside to incubate for 24 h under normoxic conditions (37 °C and 5% CO2).
# The lysates were collected by centrifugation at 13,000 × g for 15 min at 4 °C. […] These protein levels were determined by using CA IX ELISA kit and HIF1α ELISA kit according to the manufacturer’s instructions. […] Of 50 µL of the stop solution was then added and the microplates were read at 450 nm using the Epoch micro-plate reader (BioTek, Cambridge, MA).
# hCA XII = hCA XII (Homo sapiens, UniProt O43570); conditions: read-out: KI hCA XII; stopped-flow CO2 hydrase assay, mean from three assays
# Procedure: (§1) The uncatalysed rates were determined in the same manner and subtracted from the total observed rates. Stock solutions of BA (or other inhibitors) (100 mM) were prepared in distilled – deionised water, and dilutions up to 0.01 nM were done thereafter with the assay buffer. Inhibitor and enzyme solutions were preincubated together for 6 h at room temperature prior to assay in order to allow for the formation of the E–I complex. The inhibition constants were obtained by nonlinear least-squares methods using PRISM 3 and the Cheng–Prusoff equation, as reported earlier, and represent the mean from at least three different determinations.
# hCA II = hCA II (Homo sapiens, UniProt P00918); conditions: read-out: KI hCA II; stopped-flow CO2 hydrase assay, mean from three assays
# Procedure: as §1
# hCA IX = hCA IX (Homo sapiens, UniProt Q16790); conditions: read-out: KI hCA IX
# Procedure: as §1
# hCA I = hCA I (Homo sapiens, UniProt P00915); conditions: read-out: KI hCA I; stopped-flow CO2 hydrase assay, mean from three assays
# Procedure: as §1
# [3] = system: HT29 (human colon cancer) cells; conditions: read-out: IC50 cell viability
# Procedure: (§2) Cells were incubated at 37 °C and 5% CO2 in 25cm[3] flasks. On reaching 80–90% confluence, cell harvesting was performed by washing cells in phosphate-buffered saline (PBS) and then detached from the flask surface using trypsin-EDTA. Cell count was determined using a hematocytometer. Two separate cultures each for both HT29 and A375 were grown, one under normoxic conditions and the second one under hypoxic conditions. The normoxic cultures for HT29 and A375 were grown and incubated at normoxic conditions (37 °C and 5% CO2). […] The hypoxic chamber was placed in a 37 °C incubator for 4 h.
# (§3) WST-1 reagent was used to measure mitochondrial dehydrogenase activity and determine cell viability. A 0.5 M stock of B(OH)3 was prepared by dissolving 0.309 g of B(OH)3 in 10 ml of distilled water. HT29 and A375 cells were seeded on 96-well plates and incubated for 24 h, allowing them to adhere to the wells before treatment with B(OH)3. Cells were then treated with 2.5, 5, 10, 25 50, 100, and 200 mM B(OH)3 and topped to 100 µL with a prepared cell medium (one well remaining as an untreated, negative control). The plates were then incubated for 24 and 48 h periods. After each period, […] WST-1 reagent was added to each well and then the plate was incubated for another 3–4 h at 37 °C with 5% CO2. The plates were read by using an Epoch microplate reader (BioTek, Cambridge, MA) with a wavelength of 450 nm. The results were analysed by using GraphPad Prism version 9 (Graphpad Software Inc., La Jolla, CA), for determining the IC50 values, with AZA as standard CA inhibitor. HT29 and A375 cells were seeded 0.3 × 10^6 cells/well into two separate six-well plates. On each well-plate, one column was treated with BA, the second was treated with AZA, and the third column was left untreated, serving as a control.
# [4] = system: CA IX levels in A375 cells; conditions: treated at IC50 concentration for 24 h, ELISA
# Procedure: as §2, §3
# [5] = system: A375 (human malignant melanoma) cells; conditions: read-out: IC50 cell viability; A375, WST-1, 48 h
# Procedure: as §2, §3
# hCA XII, sequence (O43570 25-354): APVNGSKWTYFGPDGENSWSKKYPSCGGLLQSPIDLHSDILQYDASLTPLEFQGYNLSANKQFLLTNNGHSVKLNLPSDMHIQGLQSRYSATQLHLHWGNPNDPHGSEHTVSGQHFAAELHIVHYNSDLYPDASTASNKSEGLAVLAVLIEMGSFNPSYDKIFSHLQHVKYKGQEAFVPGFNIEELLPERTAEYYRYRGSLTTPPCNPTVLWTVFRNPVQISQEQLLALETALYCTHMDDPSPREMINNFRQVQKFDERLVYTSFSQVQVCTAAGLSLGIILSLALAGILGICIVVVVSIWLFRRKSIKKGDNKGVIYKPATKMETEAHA
# hCA I, sequence (P00915 whole entry): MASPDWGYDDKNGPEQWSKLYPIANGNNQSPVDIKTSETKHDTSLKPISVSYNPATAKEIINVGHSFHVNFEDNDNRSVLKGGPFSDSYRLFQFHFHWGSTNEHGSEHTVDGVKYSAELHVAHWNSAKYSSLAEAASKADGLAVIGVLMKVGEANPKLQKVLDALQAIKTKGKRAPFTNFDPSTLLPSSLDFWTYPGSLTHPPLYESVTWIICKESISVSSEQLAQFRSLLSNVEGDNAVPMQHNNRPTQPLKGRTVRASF
structure (smiles),measurement,setting,value
OB(O)O [Boric acid],decrease in plasma PSA levels,[1],88%
same,decrease in tumour growth,[1],25 − 35%
same,CA IX levels compared to control,[2]; HT29 hypoxic cell cultures,increase
same,CA IX levels compared to control,[2]; HT29 normoxic cell cultures,slight increase
same,pKi,hCA XII,2.21
same,pKi,hCA II,1.39
same,pKi,hCA IX,2.55
same,pKi,hCA I,1.52
same,pIC50,"[3]; HT29, WST-1, 24 h",1.71
same,pIC50,"[3]; HT29, WST-1, 48 h",1.64
same,CA IX levels compared to control,[4]; A375 hypoxic cell cultures,significantly reduced
same,CA IX levels compared to control,[4]; A375 normoxic cell cultures,significantly reduced
same,pIC50,[5],1.81
